Test results taken from US12637435B2, “Nitrogen-containing heterocyclic compound or salt thereof, use thereof, and intermediate thereof” (FUJIFILM Corporation, priority 2020, dated 2026).

What was measured:
recombinant human DHODH = biological target: T1, recombinant human DHODH (Homo sapiens, UniProt Q02127); assay: DHODH enzyme reaction inhibition test (DCIP-coupled assay); assay type: biochemical; settings: recombinant human DHODH 0.175 μg/mL, DCIP absorbance 600 nm, 50 minutes, pH 8.0; read-out: Enzyme reaction inhibitory effect (IC50)
T1 construct: DHODH, 31-395aa, Human, His tag, E. coli, ATGP1615; His tag; purchased ATGen Co. Ltd. ATGP1615; host or cells: E. coli
T1 sequence (Q02127 31-395): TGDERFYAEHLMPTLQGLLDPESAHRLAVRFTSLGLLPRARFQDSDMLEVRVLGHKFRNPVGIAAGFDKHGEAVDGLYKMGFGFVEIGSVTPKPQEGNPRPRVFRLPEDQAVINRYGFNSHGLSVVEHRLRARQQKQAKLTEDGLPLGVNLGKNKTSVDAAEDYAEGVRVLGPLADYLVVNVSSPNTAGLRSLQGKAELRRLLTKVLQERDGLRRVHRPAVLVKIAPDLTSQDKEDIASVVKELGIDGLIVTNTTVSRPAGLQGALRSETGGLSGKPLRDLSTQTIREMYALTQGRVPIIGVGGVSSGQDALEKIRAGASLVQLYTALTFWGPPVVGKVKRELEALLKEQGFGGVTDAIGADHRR
Protocol: The DHODH enzyme assay was carried out with reference to “Benjamin Bader, Wolfgang Knecht, Markus Fries, and Monika Loffler, Expression, Purification, and Characterization of Histidine-Tagged Rat and Human Flavoenzyme Dihydroorotate Dehydrogenase, Protein Expression and Purification, 1998, 13, 414-422.”
The DHODH activity was evaluated using an enzyme assay system that is coupled with an assay in which a blue coloring agent 2,6-dichlorophenolindophenol (DCIP, available from MP Biomedicals, LLC, MP150118) is quenched. Purified recombinant human DHODH (DHODH, 31-395aa, Human, His tag, E. coli, ATGP1615) was purchased from ATGen Co. Ltd. The enzyme assay was carried out in a 384-well plate using a buffer solution containing 100 mmol/L Hepes (available from Dojindo Laboratories, 342-01375), 400 mmol/L NaCl (available from FUJIFILM Wako Pure Chemical Corporation, 191-01665), 10% Glycerol (available from FUJIFILM Wako Pure Chemical Corporation, 075-00616), 0.05% Triton X-100 (available from Sigma-Aldrich Co., LLC, T8787-100ML), 0.2 mmol/L Ubiquinone-10 (available from FUJIFILM Wako Pure Chemical Corporation, 216-00761), 0.1 mmol/L DHO (L-dihydroorotic acid, available from Sigma-Aldrich Co., LLC, D7128), 0.5% DMSO (dimethylsulfoxide, available from FUJIFILM Wako Pure Chemical Corporation, 047-29353), 0.175 μg/mL DHODH, and 0.12 mmol/L DCIP and having a pH adjusted to 8.0 by adding 5 mol/L potassium hydroxide (available from FUJIFILM Wako Pure Chemical Corporation, 168-21815). A test compound with a predetermined concentration was added using Biomek NX (available from Beckman Coulter Inc.), and the enzyme reaction was started by adding the substrate. The enzyme activity was assessed by measuring the decrease in DCIP absorbance (600 nm) for 50 minutes using an EnVision plate-reading spectrophotometer (available from PerkinElmer, Inc.).
The enzyme reaction inhibition rate at each test compound concentration was determined, and the 50% enzyme reaction inhibition concentration [IC50 (nmol/L)] was calculated using XLfit. Enzyme reaction inhibition rate (%)=(amount of luminescence in test compound-added well)/(amount of luminescence in DMSO-added well)×100
The abbreviations in the table have the following meanings. • A: IC50 value<10 nmol/L • B: 10 nmol/L≤IC50 value<100 nmol/L • C: 100 nmol/L≤IC50 value

[1] = system: human myeloid leukemia cell line HL60; assay: Cell growth test, HL60 (CellTiter-Glo); assay type: cell-based; settings: HL-60, 72 h, HL60 cells, 3 days, CellTiter-Glo luminescence, read-out: Cell growth inhibitory effect (GI50)
Protocol: The cell growth test was carried out using the human myeloid leukemia cell line HL60 (available from ATCC, CRL-240). As a culture medium of HL60 cells, RPMI 1640 (available from FUJIFILM Wako Pure Chemical Corporation, 189-02025) supplemented with 10% fetal bovine serum (available from Thermo Fisher Scientific, Inc., 10437-028), and 1% penicillin-streptomycin (10,000 U/mL, available from Thermo Fisher Scientific, Inc., 15140-122) was used. HL60 cells were seeded on a 384-well plate (available from Corning Inc., 4588) at a cell density of 1×10^3 cells/20 μL/well. After culturing overnight, 5 μL of the test compound having a predetermined concentration was added, and 3 days later, 25 μL of CellTiter-Glo (registered trademark) Luminescent Cell Viability Assay (available from Promega Corporation, G7573) was added, and then the amount of luminescence was measured using an EnVision plate reader (available from PerkinElmer, Inc.). Since the amount of luminescence is proportional to the intracellular concentration of adenosine triphosphate (ATP), the amount of luminescence was used as an indicator of the number of viable cells. The growth inhibitory concentration for each test compound concentration was calculated by the following expression.
The growth inhibition rate at each test compound concentration was determined, and the 50% growth inhibitory concentration [GI50 (nmol/L)] was calculated using XLfit. Growth inhibition rate (%)=(amount of luminescence in test compound-added well)/(amount of luminescence in DMSO-added well)×100
The abbreviations in the table have the following meanings. • A: GI50 value<100 nmol/L • B: 100 nmol/L≤GI50 value<1,000 nmol/L • C: 1,000 nmol/L≤GI50 value

Compound	IC50 (recombinant human DHODH)	GI50 [1]
N#Cc1ccc(-c2cc(F)cc(Nc3ncc(C4CC4)nc3C(=O)NS(N)(=O)=O)c2OC(F)F)cc1 [Example 3-54]	10 to 100 nM	100 to 1000 nM
CS(=O)(=O)NC(=O)c1nc(C2CC2)cnc1Nc1cccc(-c2cccc(C#N)c2)c1OCC(F)(F)F [Example 3-45]	< 10 nM	< 100 nM
O=C(O)c1cc(C2CC2)cnc1Nc1cccc(C2=CCOCC2)c1OCC(F)(F)F [Example 2-5]	< 10 nM	< 100 nM
C[C@H](Oc1c(Nc2ncc(C3CC3)nc2C(=O)NC#N)cccc1C1=CCOCC1)C(F)(F)F [Example 3-31]	< 10 nM	< 100 nM
Cc1cc(C#N)ccc1-c1cccc(Nc2ncc(C3CC3)nc2C(=O)NS(C)(=O)=O)c1OCC(F)(F)F [Example 3-16]	< 10 nM	< 100 nM
OCc1nc(C2CC2)cnc1Nc1cccc(C2=CCOCC2)c1OCC(F)(F)F [Example 1-3]	10 to 100 nM	100 to 1000 nM
Cc1ccc(-c2cccc(Nc3ncc(C4CC4)nc3C(=O)NS(C)(=O)=O)c2OCC(F)(F)F)c(C)n1 [Example 3-15]	10 to 100 nM	100 to 1000 nM
O=c1[nH]nc(-c2nc(C3CC3)cnc2Nc2cccc(C3=CCOCC3)c2OCC(F)(F)F)o1 [Example 1-9, 5-(6-cyclopropyl-3-((3-(3,6-dihydro-2H-pyran-4-yl)-2-(2,2,2-trifluoroethoxy)phenyl)amino)pyrazin-2-yl)-1,3,4-oxadiazol-2(3H)-one]	10 to 100 nM	100 to 1000 nM
CC(O)c1nc(C2CC2)cnc1Nc1cccc(C2=CCOCC2)c1OCC(F)(F)F (stereo not shown) [Example 1-11, 1-(6-cyclopropyl-3-((3-(3,6-dihydro-2-H-pyran-4-yl)-2-(2,2,2-trifluoroethoxy)phenyl)amino)pyrazin-2-yl)ethan-1-ol]	≥ 100 nM	≥ 1000 nM
CCOc1c(Nc2ncc(C3CC3)cc2C(=O)O)ccc(F)c1C1=CCOCC1 [Example 2-15]	< 10 nM	< 100 nM
CCc1c(Nc2ncc(C3CC3)nc2C(=O)NS(C)(=O)=O)cccc1C1CCOCC1 [Example 3-48]	10 to 100 nM	100 to 1000 nM
CS(=O)(=O)NC(=O)c1nc(C2CC2)cnc1Nc1cccc(C2CCOCC2)c1OC(F)F [Example 3-49]	< 10 nM	< 100 nM
CS(=O)(=O)NC(=O)c1nc(C2CC2)cnc1Nc1cccc(-c2ccc(C#N)cc2)c1OC(F)F [Example 3-51]	< 10 nM	100 to 1000 nM
O=Cc1nc(C2CC2)cnc1Nc1cccc(C2=CCOCC2)c1OCC(F)(F)F [Example 1-14, 6-cyclopropyl-3-((3-(3,6-dihydro-2H-pyran-4-yl)-2-(2,2,2-trifluoroethoxy)phenyl)amino)pyrazine-2-carbaldehyde]	≥ 100 nM	≥ 1000 nM
CCOc1c(C2=CCOCC2)ccc(F)c1Nc1ncc(C2CC2)cc1C(=O)O [Example 2-14]	< 10 nM	100 to 1000 nM
CCOc1c(C2=CCOCC2)ccc(F)c1Nc1ncc(C2CC2)cc1C(=O)NS(C)(=O)=O [Example 3-59]	10 to 100 nM	≥ 1000 nM
N#Cc1ccc(-c2cccc(Nc3ncc(C4CC4)nc3C(=O)O)c2OC(F)F)cc1 [Example 2-11]	< 10 nM	100 to 1000 nM
N#CNC(=O)c1cc(C2CC2)ccc1Nc1cncc(C2=CCOCC2)c1OCC(F)(F)F [Example 3-2]	< 10 nM	≥ 1000 nM

Compound	IC50 (recombinant human DHODH)	GI50 [1]
O=C(NS(=O)(=O)C(F)(F)F)c1nc(C2CC2)cnc1Nc1cccc(C2=CCOCC2)c1OCC(F)(F)F [Example 3-18]	10 to 100 nM	≥ 1000 nM
CCOc1c(Nc2ncc(C3CC3)nc2C(=O)NS(C)(=O)=O)cccc1C1=CCOCC1 [Example 3-57]	< 10 nM	< 100 nM
CCc1c(Nc2ncc(C3CC3)cc2C(=O)NS(C)(=O)=O)cccc1C1CCOCC1 [Example 3-47]	< 10 nM	100 to 1000 nM
C[C@H](Oc1c(Nc2ncc(C3CC3)nc2C(=O)NS(C)(=O)=O)cccc1C1CCOCC1)C(F)(F)F [Example 3-13]	10 to 100 nM	100 to 1000 nM
C[C@H](Oc1c(Nc2ncc(C3CC3)nc2C(=O)NS(C)(=O)=O)cccc1C1=CCCOC1)C(F)(F)F [Example 3-62]	10 to 100 nM	100 to 1000 nM
NNC(=O)c1nc(C2CC2)cnc1Nc1cccc(C2=CCOCC2)c1OCC(F)(F)F [Example 1-8, 6-cyclopropyl-3-((3-(3,6-dihydro-2H-pyran-4-yl)-2-(2,2,2-trifluoroethoxy)phenyl)amino)pyrazine-2-carbohydrazide]	10 to 100 nM	100 to 1000 nM
O=C(O)c1nc(C2CC2)cnc1Nc1cccc(-c2ccc(F)cc2)c1OCC(F)(F)F [Example 2-13]	< 10 nM	< 100 nM
CC(=O)c1nc(C2CC2)cnc1Nc1cccc(C2=CCOCC2)c1OCC(F)(F)F [Example 1-10, 1-(6-cyclopropyl-3-((3-(3,6-dihydro-2H-pyran-4-yl)-2-(2,2,2-trifluoroethoxy)phenyl)amino)pyrazin-2-yl)ethan-1-one]	10 to 100 nM	100 to 1000 nM
CCS(=O)(=O)NC(=O)c1nc(C2CC2)cnc1Nc1cccc(C2=CCOCC2)c1OCC(F)(F)F [Example 3-17]	10 to 100 nM	≥ 1000 nM
N#Cc1cccc(-c2cccc(Nc3ncc(C4CC4)nc3C(=O)O)c2OCC(F)(F)F)c1 [Example 2-9]	< 10 nM	< 100 nM
C[C@H](Oc1c(Nc2ncc(C3CC3)nc2C(=O)NS(C)(=O)=O)cccc1C1=CCOCC1)C(F)(F)F [Example 3-32]	< 10 nM	< 100 nM
NS(=O)(=O)NC(=O)c1nc(C2CC2)cnc1Nc1cccc(C2CCOCC2)c1OC(F)F [Example 3-50]	< 10 nM	< 100 nM
O=C(O)c1cc(C2CC2)ncc1Nc1cccc(C2=CCOCC2)c1OCC(F)(F)F [Example 2-16]	< 10 nM	100 to 1000 nM
Cc1ccc(-c2cccc(Nc3ncc(C4CC4)nc3C(=O)O)c2OCC(F)(F)F)c(C)n1 [Example 1-4, 6-cyclopropyl-3-((3-(2,6-dimethylpyridin-3-yl)-2-(2,2,2-trifluoroethoxy)phenyl)amino)pyrazine-2-carboxylic acid]	10 to 100 nM	100 to 1000 nM
CNNC(=O)c1nc(C2CC2)cnc1Nc1cccc(C2=CCOCC2)c1OCC(F)(F)F [Example 1-12, 6-cyclopropyl-3-((3-(3,6-dihydro-2H-pyran-4-yl)-2-(2,2,2-trifluoroethoxy)phenyl)amino)-N′-methylpyrazine-2-carbohydrazide]	10 to 100 nM	100 to 1000 nM
CS(=O)(=O)NC(=O)c1cc(C2CC2)cnc1Nc1cccc(-c2ccc(C#N)cc2)c1OCC(F)(F)F [Example 3-36]	< 10 nM	< 100 nM
CS(=O)(=O)NCc1nc(C2CC2)cnc1Nc1cccc(C2=CCOCC2)c1OCC(F)(F)F [Example 1-15, N-((6-cyclopropyl-3-((3-(3,6-dihydro-2H-pyran-4-yl)-2-(2,2,2-trifluoroethoxy)phenyl)amino)pyrazin-2-yl)methyl)methanesulfonamide]	≥ 100 nM	≥ 1000 nM
